US11477982B2, “2-amino-5-oxyalkyl-pyrimidine derivatives and their use for controlling undesired plant growth” (Bayer CropScience Aktiengesellschaft, priority 2017, dated 2022)

Experiments:
Experiment in all cases: Post-emergence herbicidal effect
Type in all cases: in vivo
[1] = system: MATIN: Matricaria inodora
Outline: (§1)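 Visual % activity against untreated controls, where 100% means plants died and 0% means no difference, rated about 3 weeks after treatment. Plants were sprayed at the one-leaf stage with WP or EC formulations diluted in water plus 0.5% additive, at 600 l/ha.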

PHBPU: Ipomoea purpurea = system: PHBPU: Ipomoea purpurea
Outline: as §1

[2] = system: POLCO: Polygonum convolvulus
Outline: as §1

STEME: Stellaria media = system: STEME: Stellaria media
Outline: as §1

VIOTR: Viola tricolor = settings: dosage 80 g/ha
Outline: as §1

[3] = system: ABUTH: Abutilon theophrasti
Outline: as §1

[4] = system: ALOMY: Alopecurus myosuroides
Outline: as §1

[5] = system: ECHCG: Echinochloa crus-galli; settings: dosage 80 g/ha
Outline: as §1

HORMU: Hordeum murinum = system: HORMU: Hordeum murinum
Outline: as §1

LOLRI: Lolium rigidum = system: LOLRI: Lolium rigidum
Outline: as §1

SETVI: Setaria viridis = settings: dosage 80 g/ha
Outline: as §1

| SMILES | Herbicidal action against MATIN ([1]; dosage 80 g/ha) [%] | Herbicidal action against MATIN ([1]; dosage 320 g/ha) [%] | Herbicidal action against PHBPU (PHBPU: Ipomoea purpurea; dosage 320 g/ha) [%] | Herbicidal action against POLCO ([2]; dosage 80 g/ha) [%] | Herbicidal action against POLCO ([2]; dosage 320 g/ha) [%] | Herbicidal action against STEME (STEME: Stellaria media; dosage 80 g/ha) [%] | Herbicidal action against STEME (STEME: Stellaria media; dosage 320 g/ha) [%] | Herbicidal action against VIOTR (VIOTR: Viola tricolor) [%] | Herbicidal action against ABUTH ([3]; dosage 80 g/ha) [%] | Herbicidal action against ABUTH ([3]; dosage 320 g/ha) [%] | Herbicidal action against ALOMY ([4]; dosage 80 g/ha) [%] | Herbicidal action against ALOMY ([4]; dosage 320 g/ha) [%] | Herbicidal action against ECHCG [5] [%] | Herbicidal action against HORMU (HORMU: Hordeum murinum; dosage 80 g/ha) [%] | Herbicidal action against HORMU (HORMU: Hordeum murinum; dosage 320 g/ha) [%] | Herbicidal action against LOLRI (LOLRI: Lolium rigidum; dosage 80 g/ha) [%] | Herbicidal action against LOLRI (LOLRI: Lolium rigidum; dosage 320 g/ha) [%] | Herbicidal action against PHBPU (PHBPU: Ipomoea purpurea; dosage 80 g/ha) [%] | Herbicidal action against SETVI (SETVI: Setaria viridis) [%] |
| --- | --- | --- | --- | --- | --- | --- | --- | --- | --- | --- | --- | --- | --- | --- | --- | --- | --- | --- | --- |
| Cc1ccc2c(c1)[C@H](Nc1ncc(C(C)(C)O)c(N)n1)[C@@H](C)C2 [drawing 12, reference compound] | 0 | 60 | 50 | 0 | 0 | 0 | 0 | 60 | – | – | – | – | – | – | – | – | – | – | – |
| Cc1ccc2c(c1)[C@H](Nc1ncc(C(C)(C)O)c(N)n1)[C@@H](C)C2 [drawing 13, reference compound] | 0 | – | 50 | – | 0 | 0 | 0 | 60 | – | – | – | – | – | – | – | – | – | – | – |
| Cc1ccc2c(c1)[C@H](Nc1ncc([C@H](C)O)c(N)n1)[C@@H](C)C2 (racemic) [drawing 14, reference compound] | – | – | 80 | 60 | 60 | – | – | – | 10 | 60 | 0 | 70 | 0 | 0 | 20 | 30 | 70 | 20 | 60 |
